Activity calls are given as the source filed them. No cut-off for these calls is given here. Where a SMILES comes first, the peptide text is derived from it. Bridges are numbered along the chain shown (N, C = ends). [ ]: non-standard residue; d: D form. 1Nal = N[C@@H](Cc1cccc2ccccc12)C(=O)O; 2Nal = N[C@@H](Cc1ccc2ccccc2c1)C(=O)O

Data on 22 compounds can be found in ChEMBL document CHEMBL1165847, “Urotensin-II receptor modulators as potential drugs” (J Med Chem, 2010).

Experiment [1] has as its target T1, Urotensin-2 receptor (Rattus norvegicus, UniProt P49684).
T1 sequence (P49684 whole entry): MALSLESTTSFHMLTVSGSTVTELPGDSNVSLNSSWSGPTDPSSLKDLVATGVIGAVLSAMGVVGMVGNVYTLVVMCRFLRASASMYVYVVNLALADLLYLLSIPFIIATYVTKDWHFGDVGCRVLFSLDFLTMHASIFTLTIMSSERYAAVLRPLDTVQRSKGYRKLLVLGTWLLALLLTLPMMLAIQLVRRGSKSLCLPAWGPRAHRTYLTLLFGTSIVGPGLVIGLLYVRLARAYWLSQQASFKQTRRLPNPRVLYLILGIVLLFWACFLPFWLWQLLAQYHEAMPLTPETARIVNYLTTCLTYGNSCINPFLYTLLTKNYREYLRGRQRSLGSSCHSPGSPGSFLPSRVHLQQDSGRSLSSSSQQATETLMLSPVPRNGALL
Put plainly: Displacement of [125I]U2 from rat urotensin 2 receptor expressed in CHO cells. The experiment is classed as cell-based.

Experiment [2] concerns the target T2, Urotensin-2 receptor (Rattus norvegicus) (UniProt P49684).
T2 sequence (whole entry): T1 sequence (P49684 whole entry)
Put plainly: Antagonist activity at rat urotensin 2 receptor expressed in CHO cells assessed as calcium mobilization at 300 nM by FLIPR. The experiment is classed as functional, cell-based. In general terms: Calcium flux is commonly read through the fluorescence of an indicator in the cells.

Experiment [3] has as its target T1, Urotensin-2 receptor. The experiment can be described thus: Agonist activity at rat urotensin 2 receptor expressed in CHO cells assessed as calcium mobilization by FLIPR. The experiment is classed as functional, cell-based.
Experiment [4] has as its system Aorta. Put plainly: Vasoconstriction activity in spontaneously […] rat thoracic aorta at 30 nM. The experiment is classed as functional.

One may read the Ki as a measure of affinity in units of concentration, obtained from inhibition or displacement. High values mean weaker binding, low ones tighter binding. For the compound `CC(=O)N[C@H]1CSSC[C@@H](C(N)=O)NC(=O)[C@H](Cc2ccc(O)cc2)NC(=O)[C@H](CCCCN)NC(=O)[C@H](Cc2c[nH]c3ccccc23)NC(=O)[C@@H](Cc2ccccc2)NC1=O`, in experiment [1] (cho), the Ki is less than 10000 nM. Also, the result in experiment [2] was inactive.
As usually defined, the EC50 is the midpoint of the concentration-response curve. Take `CC(=O)N[C@H]1CSSC[C@@H](C(N)=O)NC(=O)[C@H](Cc2ccc(O)cc2)NC(=O)[C@H](CCCCN)NC(=O)[C@@H](Cc2c[nH]c3ccccc23)NC(=O)[C@H](Cc2ccccc2)NC1=O`: the EC50 in experiment [3] was 26 nM. In experiment [1], this compound gave a Ki of 610 nM.
In the case of `CC(=O)N[C@H]1CSSC[C@@H](C(N)=O)NC(=O)[C@@H](Cc2ccc(O)cc2)NC(=O)[C@H](CCCCN)NC(=O)[C@H](Cc2c[nH]c3ccccc23)NC(=O)[C@H](Cc2ccccc2)NC1=O`, the EC50 in experiment [3] came to 37 nM. The compound further had a Ki in experiment [1] of 1100 nM.
Turning to `CC(=O)N[C@H]1CSSC[C@@H](C(N)=O)NC(=O)[C@H](Cc2ccc(O)cc2)NC(=O)[C@@H](CCCCN)NC(=O)[C@H](Cc2c[nH]c3ccccc23)NC(=O)[C@H](Cc2ccccc2)NC1=O`, the Ki in experiment [1] (cho) was less than 10000 nM. The result in experiment [2] was inactive.
On to `CC(=O)N[C@H]1CSSC[C@@H](C(N)=O)NC(=O)[C@H](Cc2ccc(O)cc2)NC(=O)[C@H](CCCCN)NC(=O)[C@H](Cc2c[nH]c3ccccc23)NC(=O)[C@H](Cc2ccccc2)NC1=O`, for which the EC50 in experiment [3] is 1.6 nM. Also, the Ki in experiment [1] came out at 15 nM.
Regarding `CC(=O)N[C@H]1CSSC[C@@H](C(N)=O)NC(=O)[C@H](Cc2ccccc2)NC(=O)[C@H](CCCCN)NC(=O)[C@H](Cc2c[nH]c3ccccc23)NC(=O)[C@H](Cc2ccccc2)NC1=O` (Ac-CFWKFC-NH2; disulfide 1-6), the EC50 in experiment [3] came to 2.1 nM. The compound further displayed an Activity in experiment [4] of 11%. In addition, in experiment [1], the Ki was determined as 17 nM.
With `CC(=O)N[C@H]1CSSC[C@@H](C(N)=O)NC(=O)[C@H](Cc2cccc3ccccc23)NC(=O)[C@H](CCCCN)NC(=O)[C@H](Cc2c[nH]c3ccccc23)NC(=O)[C@H](Cc2ccccc2)NC1=O` (Ac-CFWK[1Nal]C-NH2; disulfide 1-6), in experiment [3], the EC50 came to 1.5 nM. Further, the affinity in experiment [1] corresponds to a Ki of 4.1 nM.
In experiment [4], `CC(=O)N[C@H]1CSSC[C@@H](C(N)=O)NC(=O)[C@H](Cc2ccc3ccccc3c2)NC(=O)[C@H](CCCCN)NC(=O)[C@H](Cc2c[nH]c3ccccc23)NC(=O)[C@H](Cc2ccccc2)NC1=O` (Ac-CFWK[2Nal]C-NH2; disulfide 1-6) displayed an Activity of 43%.
For `CC(=O)N[C@H]1CSSC[C@@H](C(N)=O)NC(=O)[C@H](Cc2ccc(O)cc2)NC(=O)[C@H](CCCCN)NC(=O)[C@H](Cc2ccc3ccccc3c2)NC(=O)[C@H](Cc2ccccc2)NC1=O` (Ac-CF[2Nal]KYC-NH2; disulfide 1-6), in experiment [3], the EC50 is 31 nM. This compound also registered a Ki in experiment [1] of 200 nM.
With `CC(=O)N[C@@H](Cc1c[nH]c2ccccc12)C(=O)N[C@@H](CCCCN)C(=O)N[C@@H](Cc1ccc(O)cc1)C(N)=O` (Ac-Trp-Lys-Tyr-NH2), in experiment [3], the EC50 was less than 500 nM. Also, the Ki in experiment [1] (cho) was less than 10000 nM.
With `CC(C)[C@H](NC(=O)[C@@H]1CSSC[C@H](NC(=O)[C@H](C)NC(=O)[C@H](C)N)C(=O)N[C@@H](Cc2ccccc2)C(=O)N[C@@H](Cc2c[nH]c3ccccc23)C(=O)N[C@@H](CCCCN)C(=O)N[C@@H](Cc2ccc(O)cc2)C(=O)N1)C(=O)O` (H-AACFWKYCV-OH; disulfide 3-8), the EC50 in experiment [3] is 0.6 nM.
With `CC(C)[C@H](NC(=O)[C@@H]1CSSC[C@H](NC(=O)[C@H](CC(=O)O)NC(=O)[C@H](C)N)C(=O)N[C@@H](C)C(=O)N[C@@H](Cc2c[nH]c3ccccc23)C(=O)N[C@@H](CCCCN)C(=O)N[C@@H](Cc2ccc(O)cc2)C(=O)N1)C(=O)O` (H-ADCAWKYCV-OH; disulfide 3-8), the EC50 in experiment [3] was 6.5 nM.
Consider `CC(C)[C@H](NC(=O)[C@@H]1CSSC[C@H](NC(=O)[C@H](CC(=O)O)NC(=O)[C@H](C)N)C(=O)N[C@@H](Cc2ccccc2)C(=O)N[C@@H](C)C(=O)N[C@@H](CCCCN)C(=O)N[C@@H](Cc2ccc(O)cc2)C(=O)N1)C(=O)O` (H-ADCFAKYCV-OH; disulfide 3-8), for which the EC50 in experiment [3] was greater than 1000 nM.
Consider `CC(C)[C@H](NC(=O)[C@@H]1CSSC[C@H](NC(=O)[C@H](CC(=O)O)NC(=O)[C@H](C)N)C(=O)N[C@@H](Cc2ccccc2)C(=O)N[C@@H](Cc2c[nH]c3ccccc23)C(=O)N[C@@H](C)C(=O)N[C@@H](Cc2ccc(O)cc2)C(=O)N1)C(=O)O` (H-ADCFWAYCV-OH; disulfide 3-8), for which the EC50 in experiment [3] was greater than 1000 nM.
As to `C[C@H](N)C(=O)N[C@@H](CC(=O)O)C(=O)N[C@H]1CSSC[C@@H](C(=O)N[C@@H](C)C(=O)O)NC(=O)[C@H](Cc2ccc(O)cc2)NC(=O)[C@H](CCCCN)NC(=O)[C@H](Cc2c[nH]c3ccccc23)NC(=O)[C@H](Cc2ccccc2)NC1=O` (H-ADCFWKYCA-OH; disulfide 3-8), the EC50 in experiment [3] amounted to 0.4 nM.
Regarding `CC(C)[C@H](NC(=O)[C@@H]1CSSC[C@H](NC(=O)[C@H](CC(=O)O)NC(=O)[C@H](C)N)C(=O)N[C@@H](Cc2ccccc2)C(=O)N[C@@H](Cc2c[nH]c3ccccc23)C(=O)N[C@@H](CCCCN)C(=O)N[C@@H](Cc2ccc(O)cc2)C(=O)N1)C(=O)O` (H-ADCFWKYCV-OH; disulfide 3-8), in experiment [3], the EC50 was 0.16 nM.
On to `CC(C)[C@H](NC(=O)[C@@H]1CSSC[C@H](NC(=O)[C@H](CC(=O)O)NC(=O)[C@H](C)NC(=O)[C@@H](NC(=O)CNC(=O)[C@H](C)N)[C@@H](C)O)C(=O)N[C@@H](Cc2ccccc2)C(=O)N[C@@H](Cc2c[nH]c3ccccc23)C(=O)N[C@@H](CCCCN)C(=O)N[C@@H](Cc2ccc3ccccc3c2)C(=O)N1)C(=O)O` (H-AGTADCFWK[2Nal]CV-OH; disulfide 6-11), for which, in experiment [3], the concentration giving a half-maximal response (EC50) stood at 0.34 nM. In addition, the Ki in experiment [1] is 0.02 nM.
`NCCCC[C@@H]1NC(=O)[C@H](Cc2c[nH]c3ccccc23)NC(=O)[C@H](Cc2ccccc2)NC(=O)[C@@H](N)CSSC[C@@H](C(=O)O)NC(=O)[C@H](Cc2ccc(O)cc2)NC1=O` (H-CFWKYC-OH; disulfide 1-6): the EC50 in experiment [3] was determined as 1.6 nM.
Still for that read-out and setting: the figure for `CC(C)[C@H](NC(=O)[C@@H]1CSSC[C@H](N)C(=O)N[C@@H](Cc2ccccc2)C(=O)N[C@@H](Cc2c[nH]c3ccccc23)C(=O)N[C@@H](CCCCN)C(=O)N[C@@H](Cc2ccc(O)cc2)C(=O)N1)C(=O)O` (H-CFWKYCV-OH; disulfide 1-6) is 0.76 nM.
With `CC(C)[C@H](NC(=O)[C@@H]1CSSC[C@H](NC(=O)[C@@H](N)CC(=O)O)C(=O)N[C@@H](Cc2ccccc2)C(=O)N[C@@H](Cc2c[nH]c3ccccc23)C(=O)N[C@@H](CCCCN)C(=O)N[C@@H](Cc2ccc(O)cc2)C(=O)N1)C(=O)O` (H-DCFWKYCV-OH; disulfide 2-7), the EC50 in experiment [3] was found to be 0.1 nM.
For `CC(C)[C@H](NC(=O)[C@@H]1CSSC[C@H](NC(=O)[C@H](CC(=O)O)NC(=O)[C@H](C)NC(=O)[C@@H](NC(=O)CN)[C@@H](C)O)C(=O)N[C@@H](Cc2ccccc2)C(=O)N[C@@H](Cc2c[nH]c3ccccc23)C(=O)N[C@@H](CCCCN)C(=O)N[C@@H](Cc2ccc(O)cc2)C(=O)N1)C(=O)O` (H-GTADCFWKYCV-OH; disulfide 5-10), the EC50 in experiment [3] turned out to be 0.29 nM.
On to `CC(C)[C@H](NC(=O)[C@@H]1CSSC[C@H](NC(=O)[C@H](CC(=O)O)NC(=O)[C@H](C)NC(=O)[C@@H](N)[C@@H](C)O)C(=O)N[C@@H](Cc2ccccc2)C(=O)N[C@@H](Cc2c[nH]c3ccccc23)C(=O)N[C@@H](CCCCN)C(=O)N[C@@H](Cc2ccc(O)cc2)C(=O)N1)C(=O)O` (H-TADCFWKYCV-OH; disulfide 4-9), for which the EC50 in experiment [3] turned out to be 0.11 nM.
